Reference: the supplement of paper PMC11061612

Legend:
[1] = system: SK-UT-1 (Other Solid Carcinomas); assay: combination Emax (second highest fraction inhibited in the dose matrix, 72 h); higher = more inhibition; extreme values may be limits of the assay
Summary of the method: (§1)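 Bliss excess equals the observed combination effect minus the expected value EA + EB − EA·EB, where EA and EB are the effects of each agent alone. Combination Emax is the second-highest inhibition within the matrix. Inhibition was scaled from CellTiter-Glo 2.0 luminescence, with 0 set by vehicle wells and 1 by blank wells, after 72 hours of two-drug dosing of cells plated in 1536-well plates.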

[2] = system: HOP-92 (Non-Small Cell Lung Carcinoma); assay: as above
Summary of the method: as §1

[3] = system: NCI-H1688 (Small Cell Lung Carcinoma); assay: as above
Summary of the method: as §1

[4] = system: P31-FUJ (Acute Myeloid Leukemia); assay: as above
Summary of the method: as §1

D-392MG (Glioblastoma) [5] = assay: as above
Summary of the method: as §1

[6] = system: BICR78 (Oral Cavity Carcinoma); assay: as above
Summary of the method: as §1

[7] = system: SK-UT-1 (Other Solid Carcinomas); assay: Bliss excess, mean over the matrix (fraction); higher = more synergy
Summary of the method: as §1

[8] = system: HOP-92 (Non-Small Cell Lung Carcinoma); assay: as above
Summary of the method: as §1

EW-22 (Ewing's Sarcoma) = assay: as above
Summary of the method: as §1

[9] = system: D-283MED (Other Solid Carcinomas); assay: as above
Summary of the method: as §1

[10] = system: HLE (Hepatocellular Carcinoma); assay: as above
Summary of the method: as §1

[11] = system: U-118-MG (Low Grade Glioma); assay: as above
Summary of the method: as §1

[12] = system: DOK (Oral Cavity Carcinoma); assay: as above
Summary of the method: as §1

HCC38 (Breast Carcinoma) = assay: as above
Summary of the method: as §1

[13] = system: P31-FUJ (Acute Myeloid Leukemia); assay: as above
Summary of the method: as §1

HuO9 (Osteosarcoma) = assay: as above
Summary of the method: as §1

[14] = system: SW948 (Colorectal Carcinoma); assay: as above
Summary of the method: as §1

MCF7 (Breast Carcinoma) = assay: as above
Summary of the method: as §1

D-392MG (Glioblastoma) [15] = assay: as above
Summary of the method: as §1

[16] = system: SW48 (Colorectal Carcinoma); assay: as above
Summary of the method: as §1

| Compound | combination Emax [1] | combination Emax [2] | combination Emax [3] | combination Emax [4] | combination Emax (D-392MG (Glioblastoma) [5]) | combination Emax [6] | Bliss excess [7] | Bliss excess [8] | Bliss excess (EW-22 (Ewing's Sarcoma)) | Bliss excess [9] | Bliss excess [10] | Bliss excess [11] | Bliss excess [12] | Bliss excess (HCC38 (Breast Carcinoma)) | Bliss excess [13] | Bliss excess (HuO9 (Osteosarcoma)) | Bliss excess [14] | Bliss excess (MCF7 (Breast Carcinoma)) | Bliss excess (D-392MG (Glioblastoma) [15]) | Bliss excess [16] |
| --- | --- | --- | --- | --- | --- | --- | --- | --- | --- | --- | --- | --- | --- | --- | --- | --- | --- | --- | --- | --- |
| CC1(C)CCC(CN2CCN(c3ccc(C(=O)NS(=O)(=O)c4ccc(NCC5CCOCC5)c([N+](=O)[O-])c4)c(Oc4cnc5[nH]ccc5c4)c3)CC2)=C(c2ccc(Cl)cc2)C1 [Venetoclax] + C=CCn1c(=O)c2cnc(Nc3ccc(N4CCN(C)CC4)cc3)nc2n1-c1cccc(C(C)(C)O)n1 [AZD1775] (first compound max 1 µM, partner max 1 µM) | 0.921 | 0.48 | 0.666 | 0.942 | 0.5 | 0.553 | 0.0562 | 0.0046 | 0.139 | 0.0257 | -0.0648 | -0.0704 | -0.0582 | 0.0136 | 0.0685 | 0.0227 | -0.0113 | -0.0227 | 0.0593 | 0.0294 |
| CC1(C)CCC(CN2CCN(c3ccc(C(=O)NS(=O)(=O)c4ccc(NCC5CCOCC5)c([N+](=O)[O-])c4)c(Oc4cnc5[nH]ccc5c4)c3)CC2)=C(c2ccc(Cl)cc2)C1 [Venetoclax] + CCN(CCO)CCCOc1ccc2c(Nc3cc(CC(=O)Nc4cccc(F)c4)[nH]n3)ncnc2c1 [AZD2811] (first compound max 1 µM, 7x7, partner max 1 µM) | 0.561 | 0.476 | 0.242 | 0.932 | 0.217 | 0.245 | 0.0491 | 0.0135 | 0.0583 | 0.0579 | 0.005 | -0.0032 | -0.0249 | 0.0347 | -0.0512 | 0.0203 | -0.0229 | 0.0142 | -0.0351 | -0.0071 |
| CC1(C)CCC(CN2CCN(c3ccc(C(=O)NS(=O)(=O)c4ccc(NCC5CCOCC5)c([N+](=O)[O-])c4)c(Oc4cnc5[nH]ccc5c4)c3)CC2)=C(c2ccc(Cl)cc2)C1 [Venetoclax] + CN(C)CCCOc1ccc(-c2ccc3ncc4c(c3c2)n(C2CCOCC2)c(=O)n4C)cn1 [AZD0156] (first compound max 1 µM, 7x7, partner max 1 µM) | 0.381 | 0.292 | 0.195 | 0.861 | 0.205 | 0.297 | -0.013 | 0.0047 | 0.0003 | 0.0189 | -0.0463 | -0.0076 | -0.0184 | 0.0361 | -0.0179 | 0.0483 | -0.0001 | -0.0152 | -0.0225 | -0.0216 |
| CC1(C)CCC(CN2CCN(c3ccc(C(=O)NS(=O)(=O)c4ccc(NCC5CCOCC5)c([N+](=O)[O-])c4)c(Oc4cnc5[nH]ccc5c4)c3)CC2)=C(c2ccc(Cl)cc2)C1 [Venetoclax] + COc1cc(Nc2ncc3c(n2)-c2ccc(Cl)cc2C(c2c(F)cccc2OC)=NC3)ccc1C(=O)O [Alisertib] (first compound max 1 µM, 7x7, partner max 10 µM) | 0.458 | 0.57 | 0.398 | 0.906 | 0.416 | 0.38 | 0.0971 | 0.082 | 0.0313 | 0.0345 | 0.0066 | -0.013 | 0.0114 | -0.0184 | 0.0678 | 0.135 | -0.0996 | 0.0079 | -0.042 | -0.0083 |
| CC1(C)CCC(CN2CCN(c3ccc(C(=O)NS(=O)(=O)c4ccc(NCC5CCOCC5)c([N+](=O)[O-])c4)c(Oc4cnc5[nH]ccc5c4)c3)CC2)=C(c2ccc(Cl)cc2)C1 [Venetoclax] + C[C@@H]1COCCN1C2=NC(=NC(=C2)C3(CC3)[S@](=N)(=O)C)C4=C5C=CNC5=NC=C4 [AZD6738] (first compound max 1 µM, 7x7, partner max 10 µM) | 0.895 | 0.562 | 0.451 | 0.968 | 0.339 | 0.603 | -0.0299 | -0.0427 | -0.0189 | -0.0345 | -0.063 | -0.0106 | -0.0833 | -0.0264 | 0.0498 | 0.0275 | -0.0835 | 0.0003 | -0.0807 | -0.0398 |
| CC1(C)CCC(CN2CCN(c3ccc(C(=O)NS(=O)(=O)c4ccc(NCC5CCOCC5)c([N+](=O)[O-])c4)c(Oc4cnc5[nH]ccc5c4)c3)CC2)=C(c2ccc(Cl)cc2)C1 [Venetoclax] + C[C@@H](Nc1cc(F)cc(F)c1)c1cc(C(=O)N(C)C)cc2c(=O)cc(N3CCOCC3)oc12 [AZD8186] (first compound max 1 µM, 7x7, partner max 3 µM) | 0.206 | 0.206 | 0.191 | 0.866 | 0.139 | 0.434 | -0.0141 | -0.0212 | 0.0333 | -0.0149 | -0.0364 | -0.0383 | -0.0548 | -0.0075 | 0.0178 | 0.0776 | -0.0518 | -0.0499 | -0.061 | -0.0278 |
| CC1(C)CCC(CN2CCN(c3ccc(C(=O)NS(=O)(=O)c4ccc(NCC5CCOCC5)c([N+](=O)[O-])c4)c(Oc4cnc5[nH]ccc5c4)c3)CC2)=C(c2ccc(Cl)cc2)C1 [Venetoclax] + Cc1cc2ncnn2cc1Nc1ncc2c(n1)n(C1CCOCC1)c(=O)n2C [AZD7648] (first compound max 1 µM, 7x7, partner max 10 µM) | 0.221 | 0.263 | 0.245 | 0.856 | 0.178 | 0.265 | -0.0119 | -0.0194 | -0.0094 | -0.051 | -0.024 | -0.0148 | -0.0208 | -0.007 | -0.015 | 0.0557 | -0.0448 | -0.0267 | -0.0374 | 0.0327 |
